Source: ChEMBL document CHEMBL2073746, “Inhibitory effect of the reversal agents V-104, GF120918 and Pluronic L61 on MDR1 Pgp-, MRP1- and MRP2-mediated transport” (Br J Cancer, 2000)

How the values were obtained:
Format in all cases: functional, cell-based
[1] = biological target: T1, ATP-dependent translocase ABCB1 (Homo sapiens, UniProt P08183); experiment: TP_TRANSPORTER: inhibition of Daunorubicin transepithelial transport (basal to apical)(Daunorubicin: 2 uM, V-104: 15 uM) in MDR1-expressing MDCKII cells; conditions: dog, mdck-ii
T1 sequence (P08183 whole entry): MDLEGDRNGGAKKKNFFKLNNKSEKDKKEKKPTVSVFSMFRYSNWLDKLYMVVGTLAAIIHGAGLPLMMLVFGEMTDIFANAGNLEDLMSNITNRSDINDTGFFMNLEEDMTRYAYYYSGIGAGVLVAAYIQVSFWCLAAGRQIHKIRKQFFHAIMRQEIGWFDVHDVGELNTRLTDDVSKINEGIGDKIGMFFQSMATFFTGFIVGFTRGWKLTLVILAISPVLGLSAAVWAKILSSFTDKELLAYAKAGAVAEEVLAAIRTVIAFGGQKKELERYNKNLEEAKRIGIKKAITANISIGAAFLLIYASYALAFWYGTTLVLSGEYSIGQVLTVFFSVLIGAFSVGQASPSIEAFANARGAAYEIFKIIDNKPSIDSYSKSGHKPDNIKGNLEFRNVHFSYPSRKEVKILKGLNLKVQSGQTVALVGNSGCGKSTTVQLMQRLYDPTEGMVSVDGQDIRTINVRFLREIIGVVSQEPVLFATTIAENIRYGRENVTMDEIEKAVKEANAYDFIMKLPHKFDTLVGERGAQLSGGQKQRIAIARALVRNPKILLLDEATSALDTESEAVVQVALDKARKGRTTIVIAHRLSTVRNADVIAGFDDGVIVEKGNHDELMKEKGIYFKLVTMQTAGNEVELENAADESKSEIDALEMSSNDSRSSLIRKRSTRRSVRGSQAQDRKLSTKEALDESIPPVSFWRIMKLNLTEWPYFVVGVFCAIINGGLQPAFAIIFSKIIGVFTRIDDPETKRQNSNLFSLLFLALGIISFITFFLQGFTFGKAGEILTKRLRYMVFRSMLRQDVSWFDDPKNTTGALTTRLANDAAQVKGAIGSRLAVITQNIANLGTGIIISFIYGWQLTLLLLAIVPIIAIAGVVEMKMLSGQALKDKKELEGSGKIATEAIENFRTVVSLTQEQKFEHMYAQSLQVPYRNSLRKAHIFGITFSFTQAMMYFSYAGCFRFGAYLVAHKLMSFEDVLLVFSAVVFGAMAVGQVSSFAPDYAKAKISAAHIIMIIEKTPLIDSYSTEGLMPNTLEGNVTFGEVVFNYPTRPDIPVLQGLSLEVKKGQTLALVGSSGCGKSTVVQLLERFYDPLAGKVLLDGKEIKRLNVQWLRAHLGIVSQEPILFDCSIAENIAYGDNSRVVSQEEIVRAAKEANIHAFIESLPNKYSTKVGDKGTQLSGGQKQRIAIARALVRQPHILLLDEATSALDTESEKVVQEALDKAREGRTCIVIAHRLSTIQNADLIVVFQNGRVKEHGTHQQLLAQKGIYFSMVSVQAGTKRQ

[2] = biological target: T1, ATP-dependent translocase ABCB1; experiment: TP_TRANSPORTER: inhibition of Vinblastine transepithelial transport (basal to apical) (Vinblastine: 2 uM, Pluronic L61: 0.04%) in MDR1-expressing LLC-PK1 cells; conditions: pig
[3] = biological target: ATP-binding cassette sub-family C member 2 (Homo sapiens, UniProt Q92887); experiment: TP_TRANSPORTER: inhibition of Vinblastine transepithelial transport (basal to apical)(Vinblastine: 2 uM, Pluronic L61: 0.1%) in MRP2-expressing MDCKII cells; conditions: dog, mdck-ii
ATP-binding cassette sub-family C member 2, sequence (Q92887 whole entry): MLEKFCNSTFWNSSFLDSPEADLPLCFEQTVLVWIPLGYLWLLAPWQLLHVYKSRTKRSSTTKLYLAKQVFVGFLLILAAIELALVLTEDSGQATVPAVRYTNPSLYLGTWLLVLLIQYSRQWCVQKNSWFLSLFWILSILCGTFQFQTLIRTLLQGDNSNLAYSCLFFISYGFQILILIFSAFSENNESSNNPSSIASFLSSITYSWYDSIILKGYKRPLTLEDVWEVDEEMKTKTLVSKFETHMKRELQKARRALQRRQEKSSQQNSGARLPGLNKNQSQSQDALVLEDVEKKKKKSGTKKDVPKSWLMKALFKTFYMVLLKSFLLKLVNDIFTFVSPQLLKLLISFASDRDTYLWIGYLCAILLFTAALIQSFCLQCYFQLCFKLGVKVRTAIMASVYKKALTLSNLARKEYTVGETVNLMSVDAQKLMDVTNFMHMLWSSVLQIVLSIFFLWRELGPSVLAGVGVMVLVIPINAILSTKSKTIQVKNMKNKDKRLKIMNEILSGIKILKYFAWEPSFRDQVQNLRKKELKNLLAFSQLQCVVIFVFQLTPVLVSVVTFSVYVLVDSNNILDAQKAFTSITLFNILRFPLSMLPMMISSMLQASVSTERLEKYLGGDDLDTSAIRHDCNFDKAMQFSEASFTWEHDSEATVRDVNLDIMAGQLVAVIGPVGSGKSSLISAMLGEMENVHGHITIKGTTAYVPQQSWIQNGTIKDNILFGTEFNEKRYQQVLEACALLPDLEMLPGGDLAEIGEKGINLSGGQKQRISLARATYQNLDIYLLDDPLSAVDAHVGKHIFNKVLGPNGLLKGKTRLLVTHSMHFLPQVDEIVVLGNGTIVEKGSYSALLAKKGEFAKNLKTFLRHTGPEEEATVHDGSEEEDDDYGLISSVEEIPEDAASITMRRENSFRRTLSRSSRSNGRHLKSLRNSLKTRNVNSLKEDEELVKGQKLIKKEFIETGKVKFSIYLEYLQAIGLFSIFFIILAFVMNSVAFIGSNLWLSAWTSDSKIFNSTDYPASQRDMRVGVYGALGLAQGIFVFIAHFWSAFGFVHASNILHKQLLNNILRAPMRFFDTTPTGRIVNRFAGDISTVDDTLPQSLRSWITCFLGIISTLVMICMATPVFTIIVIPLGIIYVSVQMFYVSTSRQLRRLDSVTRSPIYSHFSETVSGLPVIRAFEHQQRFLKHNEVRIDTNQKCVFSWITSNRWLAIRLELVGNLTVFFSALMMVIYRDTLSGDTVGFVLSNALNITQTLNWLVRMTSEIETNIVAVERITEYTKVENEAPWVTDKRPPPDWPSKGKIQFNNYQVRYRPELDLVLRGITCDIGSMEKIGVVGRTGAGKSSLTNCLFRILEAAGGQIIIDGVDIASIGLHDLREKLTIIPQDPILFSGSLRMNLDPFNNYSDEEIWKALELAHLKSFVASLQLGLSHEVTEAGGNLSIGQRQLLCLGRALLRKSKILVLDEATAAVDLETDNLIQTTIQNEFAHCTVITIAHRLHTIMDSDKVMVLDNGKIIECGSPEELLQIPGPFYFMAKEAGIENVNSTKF

| Compound | Activity [1] | Activity [2] | Activity [3] |
| --- | --- | --- | --- |
| COc1cc(C(=O)C(=O)N2CCCC[C@H]2C(=O)O)cc(OC)c1OC | inhibitor [+] | – | – |
| PLURONIC L61 | – | inhibitor [+] | inhibitor [+] |
